The values that follow come from BindingDB's records for doi:10.1021/acs.jmedchem.2c02098 (University of Bologna, 2023).

Test [1] concerns the target Integrin alpha-L/beta-2 (LFA-1) (Homo sapiens). Put plainly: Agonist activity at alphaLbeta2 integrin receptor in human Jurkat E6.1 cells assessed as inhibition of ICAM-1-induced cell adhesion pre-incubated for 30 mins followed by 30 mins incubation in ICAM-1 coated wells by fluorescence plate reader assay.
Test [2] has as its target Integrin alpha4/beta1 (Homo sapiens). As to the kind of experiment: Agonist activity at alpha4beta1 integrin receptor in human Jurkat E6.1 cells assessed as inhibition of fibronectin-induced cell adhesion pre-incubated for 30 mins followed by 30 mins incubation in fibronectin coated wells by fluorescence plate reader assay.
For test [3] the target is unchanged. As to the kind of experiment: Agonist activity at alpha4beta1 integrin receptor in human Jurkat E6.1 cells assessed as inhibition of vascular cell adhesion molecule 1-induced cell adhesion pre-incubated for 30 mins followed by 30 mins incubation in vascular cell adhesion molecule 1 coated wells by fluorescence plate reader assay.
For test [4], the target named is Integrin alpha5/beta1 (Homo sapiens). Put plainly: Agonist activity at alpha5beta1 integrin receptor in human K562 cells assessed as inhibition of fibronectin-induced cell adhesion pre-incubated for 30 mins followed by 1 hr incubation in fibronectin coated wells by fluorescence plate reader assay.

In general, EC50 refers to the concentration at which the effect is half-maximal. Take `Cc1ccccc1NC(=O)N1C(=O)CC1CC(=O)NCC(=O)O` (stereo not given): the EC50 in test [1], in test [2] and in test [3] was > 5 µM each time.

Consider `Cc1ccccc1NC(=O)N1C(=O)CC1CC(=O)O` (stereo not given), for which the concentration for a half-maximal effect (EC50) in test [1] and in test [4] was > 5 µM throughout.
